Reference: publication PMC7942396, “Drug Repurposing Screen for Compounds Inhibiting the Cytopathic Effect of SARS-CoV-2” (Frontiers in Pharmacology, 2021)
Structures can show the parent of a compound that is named as a salt. Where two headings read alike, the source gives them in different places. Where a SMILES comes first, the peptide text is derived from it. [ ]: non-standard residue; d: D form. Nle = CCCC[C@H](N)C(=O)O

Tests used:
Vero E6 cells = Vero E6 cells without virus; for CC50: read-out: Cytotox CC50
[1] = test system: SARS-CoV-2 (USA_WA1/2020); experiment: microbe, parasite or virus in culture; format: cell-based; conditions: for EC50: read-out: CPE EC50
[2] = SARS-CoV-2 CPE assay, Vero E6 cells
[3] = SARS-CoV-2 CPE assay, Vero E6 cells, confirmed anti-SARS-CoV-2 compounds
[4] = SARS-CoV-2 CPE assay, Vero E6 cells, efficacy
[5] = […], DMSO 0%, no-virus control 100%, hit confirmation

Cc1ccc(-c2c(C(=O)CCl)n(CCCO)c3ncnc(N)c23)cc1 [CMK]
% Cytotox (Vero E6 cells; cytotoxicity counter-assay): 15.2% | CPE % Efficacy [1, 2]: 38.9% | EC50 [1, 2]: 12.6 µM

CCN(CC)Cc1cccc(/C=C/c2nc3ccc(F)cc3c(=O)n2-c2ccccc2Cl)n1.Cl [CP 465022 hydrochloride]
% Cytotox (Vero E6 cells; cytotoxicity counter-assay): 47.9% | CC50 (Vero E6 cells; cytotoxicity counter-assay): 12.6 µM | EC50 [1, 3]: 10 µM | CPE % Efficacy [1, 4]: 77.3%

COc1cc2nc(-c3ccc(N4CCN(C)CC4)cc3)nc(NCCN3CCOCC3)c2cc1OC [CPG-52364]
% Cytotox (Vero E6 cells; cytotoxicity counter-assay): 41.6% | CC50 (Vero E6 cells; cytotoxicity counter-assay): 10 µM | EC50 [1, 3]: 11.2 µM | CPE % Efficacy [1, 4]: 63.1%

Cc1nc(C)c(CN2CCN(C(c3ccc(F)cc3)c3ccc(F)cc3)CC2)nc1C [CXC-195]
% Cytotox (Vero E6 cells; cytotoxicity counter-assay): 0.0% | CPE % Efficacy [1, 2]: 32.4% | EC50 [1, 2]: 12.6 µM

Cc1cc(CN)cc(C)c1NC(=O)c1ccc(-c2cc(Cl)ccc2Cl)o1 [CYM50358]
% Cytotox (Vero E6 cells; cytotoxicity counter-assay): 52.7% | EC50 [1, 3]: 4.47 µM | CPE % Efficacy [1, 4]: 34.9%

CCOc1ccc(-c2nc(-c3cccc4c3CCC4NCCO)no2)cc1OCC.Cl (centres unmarked) [CYM 5442 hydrochloride]
% Cytotox (Vero E6 cells; cytotoxicity counter-assay): 0.0% | EC50 [1, 3]: 11.2 µM | CPE % Efficacy [1, 4]: 134.3%

CN(C)S(=O)(=O)c1ccc(NC(=S)N2CCC(C(O)(c3ccccc3)c3ccccc3)CC2)cc1 [CYM 9484]
% Cytotox (Vero E6 cells; cytotoxicity counter-assay): 13.8% | CC50 (Vero E6 cells; cytotoxicity counter-assay): 19.9 µM | EC50 [1, 3]: 11.2 µM | CPE % Efficacy [1, 4]: 30.8%

CCCC[C@@H](C=O)NC(=O)[C@H](CC(C)C)NC(=O)[C@H](CC(C)C)NC(C)=O [Calpain Inhibitor I, ALLN, reference compound] (Ac-Leu-Leu-[Nle]-aldehyde)
% Cytotox (Vero E6 cells; 72 h): <30% | % Cytotox (Vero E6 cells; cytotoxicity counter-assay): 115.5% | CC50 (Vero E6 cells; cytotoxicity counter-assay): 1.13 µM | EC50 [1, 3]: 0.0226 µM | CPE % Efficacy [1, 4]: 72.0% | CPE % Efficacy [1, 5]: 111.1% | EC50 [1]: 2 µM

COc1ccccc1OCCNCC(O)COc1cccc2[nH]c3ccccc3c12.O=C(O)C(O)C(O)C(=O)O (centres unmarked) [Carvedilol tartrate]
% Cytotox (Vero E6 cells; cytotoxicity counter-assay): 12.7% | CC50 (Vero E6 cells; cytotoxicity counter-assay): 11.2 µM | EC50 [1, 3]: 11.2 µM | CPE % Efficacy [1, 4]: 101.1%

Cn1nc(C(C)(C)C)cc1C(=O)N[C@@H](Cc1cccc(Cl)c1)C(=O)NCC#N [Cathepsin Inhibitor 1, reference compound]
% Cytotox (Vero E6 cells; 72 h): <30% | CPE % Efficacy [1, 5]: 114.4% | EC50 [1]: 0.25 µM

CCN(CC)CCCS(=O)(=O)N[C@H](CCc1ccccc1)c1nc(Cc2ccc(Br)cc2)no1 [CpdD hydrochloride, reference compound]
% Cytotox (Vero E6 cells; 72 h): <30% | CPE % Efficacy [1, 5]: 96.9% | EC50 [1]: 10 µM

O=C(O)c1ccc(CCCc2ccc(OCCc3ccc(F)cc3)cc2)o1 [D-942]
% Cytotox (Vero E6 cells; cytotoxicity counter-assay): 53.7% | CC50 (Vero E6 cells; cytotoxicity counter-assay): 11.2 µM | EC50 [1, 3]: 0.14 µM | CPE % Efficacy [1, 4]: 120.3%

O=C1NC(=O)c2cc(Nc3ccccc3)c(Nc3ccccc3)cc21 [DAPH]
% Cytotox (Vero E6 cells; cytotoxicity counter-assay): 79.5% | CC50 (Vero E6 cells; cytotoxicity counter-assay): 11.2 µM | EC50 [1, 3]: 3.98 µM | CPE % Efficacy [1, 4]: 53.9%

NC(=O)c1ccccc1Nc1ccnc(Nc2cccc(O)c2)n1 [DB-07268]
% Cytotox (Vero E6 cells; cytotoxicity counter-assay): 40.9% | CC50 (Vero E6 cells; cytotoxicity counter-assay): 1 µM | EC50 [1, 3]: 10 µM | CPE % Efficacy [1, 4]: 52.8%

Cl.Cl.Fc1ccc(-c2nc(C3CCNCC3)sc2-c2ccnc(NC3CC3)n2)cc1 [DBM 1285 dihydrochloride]
% Cytotox (Vero E6 cells; cytotoxicity counter-assay): 61.3% | CC50 (Vero E6 cells; cytotoxicity counter-assay): 11.2 µM | CPE % Efficacy [1, 2]: 56.1% | EC50 [1, 2]: 12.6 µM

CC(=O)O[C@@H]1C[C@H]2C(C)(C)C(=O)C=C[C@]2(C)[C@H]2CC[C@]3(C)C(=CC(=O)O[C@H]3c3ccoc3)[C@@]21C [DEOXYGEDUNIN]
% Cytotox (Vero E6 cells; cytotoxicity counter-assay): 0.0% | EC50 [1, 3]: 11.2 µM | CPE % Efficacy [1, 4]: 107.7%

CCC[C@@H](NC(=O)N1C(=O)C(CC)(CC)[C@@H]1Oc1ccc(C(=O)N2CCN(C)CC2)cc1)c1ccc2c(c1)OCO2 [DMP 777, reference compound]
% Cytotox (Vero E6 cells; 72 h): <30% | CPE % Efficacy [1, 5]: 92.5% | EC50 [1]: 10 µM

CC1(C)CCC(C)(C)c2cc(C#Cc3ccc(C(=O)O)cc3)ccc21 [EC 23]
% Cytotox (Vero E6 cells; cytotoxicity counter-assay): 74.0% | CC50 (Vero E6 cells; cytotoxicity counter-assay): 12.6 µM | EC50 [1, 3]: 3.98 µM | CPE % Efficacy [1, 4]: 110.5%

CC(C)c1cccc2c(-c3ccccc3)cc(-c3ccc(-c4ccc(C(=O)O)cc4)[nH]3)nc12 [ER 50891]
% Cytotox (Vero E6 cells; cytotoxicity counter-assay): 16.9% | CC50 (Vero E6 cells; cytotoxicity counter-assay): 15.8 µM | EC50 [1, 3]: 11.2 µM | CPE % Efficacy [1, 4]: 88.0%

CC(C)C[C@H]1C(=O)O[C@H](Cc2ccc(N3CCOCC3)cc2)C(=O)N(C)[C@@H](CC(C)C)C(=O)O[C@H](C)C(=O)N(C)[C@@H](CC(C)C)C(=O)O[C@H](Cc2ccc(N3CCOCC3)cc2)C(=O)N(C)[C@@H](CC(C)C)C(=O)O[C@H](C)C(=O)N1C [Emodepside]
% Cytotox (Vero E6 cells; cytotoxicity counter-assay): 32.2% | CC50 (Vero E6 cells; cytotoxicity counter-assay): 8.91 µM | EC50 [1, 3]: 6.31 µM | CPE % Efficacy [1, 4]: 74.5%

O=C(NCCCCN1CCN(c2cccc(Cl)c2Cl)CC1)c1cc2ccccc2s1 [FAUC-365]
% Cytotox (Vero E6 cells; cytotoxicity counter-assay): 35.5% | CC50 (Vero E6 cells; cytotoxicity counter-assay): 12.6 µM | EC50 [1, 3]: 4.47 µM | CPE % Efficacy [1, 4]: 36.5%

CS(=O)(=O)O.Cc1ncc(NC(=O)c2ccc(CN3CCN(C)CC3)c(C(F)(F)F)c2)cc1Nc1nccc(-c2cccnc2)n1 [Flumatinib mesylate]
% Cytotox (Vero E6 cells; cytotoxicity counter-assay): 11.1% | CC50 (Vero E6 cells; cytotoxicity counter-assay): 4.47 µM | CPE % Efficacy [1, 2]: 134.3% | EC50 [1, 2]: 12.6 µM

COc1ccc(NC(=O)c2ccc(-c3ccc(-c4nnc(C)o4)cc3C)cc2)cc1N1CCN(C)CC1 [GMC 2-29, reference compound]
% Cytotox (Vero E6 cells; 72 h): <30% | CPE % Efficacy [1, 5]: 117.2% | EC50 [1]: 7.9 µM

Cc1nnc(-c2ccc(-c3ccc(C(=O)Nc4ccc(O)c(N5CCN(C)CC5)c4)cc3)c(C)c2)o1 [GMC 2-113, reference compound]
% Cytotox (Vero E6 cells; 72 h): <30% | CPE % Efficacy [1, 5]: 129.7% | EC50 [1]: 10 µM

NC(=O)c1cccc(-c2cc(Nc3ccc(OC(F)(F)F)cc3)ncn2)c1 [GNF-2]
% Cytotox (Vero E6 cells; cytotoxicity counter-assay): 0.0% | CPE % Efficacy [1, 2]: 63.4% | EC50 [1, 2]: 11.2 µM

COc1cccc(-n2c(=O)[nH]c3cc(Cl)n(-c4ccc(-c5cccc(OC)c5O)cc4)c3c2=O)c1 [GSK621]
% Cytotox (Vero E6 cells; cytotoxicity counter-assay): 58.4% | EC50 [1, 3]: 11.2 µM | CPE % Efficacy [1, 4]: 77.9%
